US20250059187A1, “COVALENTLY BINDING INHIBITORS OF G12S, G12D AND/OR G12E MUTANTS OF K-RAS GTPASE” (The Regents of the University of California, priority 2021, published 2025)

Legend:
Format in all cases: binding
K-Ras G12D = target: T1, K-Ras G12D (Homo sapiens, UniProt P01116, G12D); assay: Covalent modification of test protein after incubation with compound; conditions: 24-h incubation with 100 μM compound at 23° C. at pH 7.5
T1 construct: human K-Ras (G12D, aa 1-169); 6xHis tag + TEV cleavage site (N, cleaved yes); made in house; host or cells: E. coli BL21(DE3)

wild type K-Ras [1] = target: T2, wild type K-Ras (Homo sapiens, UniProt P01116); assay: as above; conditions: 24-h incubation with 100 μM compound at 23° C. at pH 7.5
T2 construct: human K-Ras (wildtype, aa 1-169); 6xHis tag + TEV cleavage site (N, cleaved yes); made in house; host or cells: E. coli BL21(DE3)

K-Ras(G12S) = K-Ras(G12S) (Homo sapiens, UniProt P01116, G12S); assay: Covalent modification of recombinant K-Ras(G12S) by whole-protein mass spectrometry; design: human K-Ras (G12S, aa 1-169); 6xHis tag + TEV cleavage site (N, cleaved yes); made in house; host or cells: E. coli BL21(DE3); conditions: 23° C.; for % covalent modification of K-Ras G12S: 24-h incubation, 100 μM compound, pH 7.5
Protocol: (§1) Test compounds were prepared as 100× stock solutions in DMSO. K-Ras proteins were diluted with SEC Buffer (20 mM HEPES 7.5, 150 mM NaCl, 1 mM MgCl2) to 400 nM or 1 μM. In a typical reaction, 0.5 μL 100× compound stock was mixed with 50 μL diluted K-Ras protein, and the resulting mixture was incubated for the desired amount of time. The extent of modification was assessed by electrospray mass spectrometry using a Waters Xevo G2-XS system equipped with an Acquity UPLC BEH C4 1.7 μm column. […] For kinetic measurements, a 2× compound solution was first prepared in SEC Buffer, which was then mixed with 400 nM K-Ras(G12S) protein at 1:1 (v/v) ratio. Injection time stamps were used to calculate elapsed time.
as §1, with “K-Ras(G12D)” for “K-Ras(G12S)”

K-Ras G12E = target: T3, K-Ras G12E (Homo sapiens, UniProt P01116, G12E); assay: Covalent modification of test protein after incubation with compound; conditions: 24-h incubation with 100 μM compound at 23° C. at pH 7.5
T3 construct: human K-Ras (G12E, aa 1-169); 6xHis tag + TEV cleavage site (N, cleaved yes); made in house; host or cells: E. coli BL21(DE3)

wild type K-Ras [2] = target: T2, wild type K-Ras; assay: Covalent modification of recombinant wild-type K-Ras by whole-protein mass spectrometry; conditions: 23° C.; for % covalent modification of wild type K-Ras: 24-h incubation, 100 μM compound, pH 7.5
Protocol: (§2) Test compounds were prepared as 100× stock solutions in DMSO. K-Ras proteins were diluted with SEC Buffer (20 mM HEPES 7.5, 150 mM NaCl, 1 mM MgCl2) to 400 nM or 1 μM. In a typical reaction, 0.5 μL 100× compound stock was mixed with 50 μL diluted K-Ras protein, and the resulting mixture was incubated for the desired amount of time. The extent of modification was assessed by electrospray mass spectrometry using a Waters Xevo G2-XS system equipped with an Acquity UPLC BEH C4 1.7 μm column. The mobile phase was a linear gradient of 5-95% acetonitrile/water+0.05% formic acid. For kinetic measurements, a 2× compound solution was first prepared in SEC Buffer, which was then mixed with 400 nM K-Ras(G12S) protein at 1:1 (v/v) ratio. Injection time stamps were used to calculate elapsed time.
as §2, with “K-Ras(G12D)” for “K-Ras(G12S)”

| SMILES | % covalent modification of K-Ras G12D (K-Ras G12D) [%] | % covalent modification of wild type K-Ras (wild type K-Ras [1]) [%] | covalent reaction with K-Ras(G12S)·GDP (K-Ras(G12S); 10 μM compound) | % covalent modification of K-Ras G12S (K-Ras(G12S)) [%] | % covalent modification of K-Ras G12E (K-Ras G12E) [%] | covalent adducts with wild-type K-Ras protein (wild type K-Ras [2]; 10 μM compound, 4 μM protein) | % covalent modification of wild type K-Ras (wild type K-Ras [2]) [%] |
| --- | --- | --- | --- | --- | --- | --- | --- |
| CN1CCC[C@H]1COc1nc2c(c(N3CCC4OC(=O)C4C3)n1)CCN(c1cccc3cccc(Cl)c13)C2 (stereo partly shown) [2′] | 6.0 | 0 | did not yield any covalent adduct | 23.0 | 7.0 | neither of these compounds formed covalent adducts | 0 |
| C[C@@H]1C(=O)O[C@H]1C(=O)N1[C@@H]2CC[C@H]1CN(c1nc(OCC34CCCN3CCC4)nc3c(F)c(-c4cccc5cccc(Cl)c45)ncc13)C2 [(2R, 3S)-3] | 100 | 0 |  |  |  |  |  |
| CC(C)[C@@H]1C(=O)O[C@H]1C(=O)N1[C@@H]2CC[C@H]1CN(c1nc(OCC34CCCN3CCC4)nc3c(F)c(-c4cccc5cccc(Cl)c45)ncc13)C2 [(2R, 3S)-4] | 100 | 0 |  |  |  |  |  |
| C#Cc1cccc2cccc(-c3ncc4c(N5C[C@H]6CC[C@@H](C5)N6C(=O)[C@@H]5OC(=O)[C@H]5C(C)C)nc(OCC56CCCN5CCC6)nc4c3F)c12 [(2R, 3S)-5] | 100 | 0 |  |  | 0 |  |  |
| C#Cc1c(F)ccc2cc(O)cc(-c3ncc4c(N5C[C@H]6CC[C@@H](C5)N6C(=O)[C@@H]5OC(=O)[C@H]5C(C)C)nc(OC[C@@]56CCCN5C[C@H](F)C6)nc4c3F)c12 [(2R, 3S)-6] | 100 | 0 |  |  | 0 |  |  |
| O=C1C[C@H](C(=O)N2[C@@H]3CC[C@H]2CN(c2nc(OCC45CCCN4CCC5)nc4c(F)c(-c5cccc6cccc(Cl)c56)ncc24)C3)O1 [(R)-2] | 100 | 0 |  |  |  |  |  |
| Cc1ccc2[nH]ncc2c1-c1cc2ncnc(N3CC(C(=O)N[C@H]4COC4=O)C3)c2cc1Cl [Compound 03-099] | 23.4 | 18.6 |  |  | 16.8 |  |  |
| Cc1ccc2[nH]ncc2c1-c1cc2ncnc(N3CC(C(=O)N[C@@H]4COC4=O)C3)c2cc1Cl [Compound 03-100] | 17.7 | 22.6 |  |  | 18.5 |  |  |
| O=C1O[C@@H]2CCN(c3ncnc4c(F)c(-c5ccccc5F)c(Cl)cc34)C[C@H]12 [Compound 04-005] | 0 | 0 |  | 0 | 0 |  | 0 |
| Cc1ccc2[nH]ncc2c1-c1cc2ncnc(N3CCC(C(=O)N[C@H]4COC4=O)CC3)c2cc1Cl [Compound 04-022] | 4.1 | 4.6 |  |  | 2.1 |  |  |
| Cc1ccc2[nH]ncc2c1-c1cc2ncnc(N3CCC(C(=O)N[C@@H]4COC4=O)CC3)c2cc1Cl [Compound 04-023] | 2.7 | 1.5 |  |  | 2.1 |  |  |
| CC1(c2cc(NCC(=O)N3CC[C@H]4OC(=O)[C@H]4C3)c(O)cc2Cl)CC1 [Compound 06-092] | 2.4 | 8.0 |  | 0 | 7.4 |  | 8.0 |
| CC1(c2cc(NCC(=O)N3CC[C@H]4C(=O)O[C@H]4C3)c(O)cc2Cl)CC1 [Compound 06-093] | 2.4 | 4.8 |  | 0 | 5.3 |  | 4.8 |
| CC1(c2cc(NCC(=O)N[C@H]3COC3=O)c(O)cc2Cl)CC1 [Compound 06-094] | 0 | 0 |  |  |  |  |  |
| CC1(c2cc(NCC(=O)N[C@@H]3COC3=O)c(O)cc2Cl)CC1 [Compound 06-095] | 0 | 0 |  |  |  |  |  |
| CC1(c2cc(NCC(=O)N3CC[C@H]4OC(=O)[C@@]4(C)C3)c(O)cc2Cl)CC1 [Compound 08-043] | 0 | 0 |  |  | 0 |  | 0 |
| CC1(c2cc(NCC(=O)N3CC[C@@]4(C)C(=O)O[C@H]4C3)c(O)cc2Cl)CC1 [Compound 08-044] | 0 | 0 |  |  | 0 |  | 0 |
| CN1CCC[C@@H]1COc1nc2c(c(N3CC[C@@]4(C)C(=O)O[C@H]4C3)n1)CCN(c1cccc3cccc(Cl)c13)C2 [Compound 12-028] | 0 | 0 |  | 19.0 | 0 |  | 0 |
| CN1CCC[C@@H]1COc1nc2c(c(N3CC[C@H]4OC(=O)[C@@]4(C)C3)n1)CCN(c1cccc3cccc(Cl)c13)C2 [Compound 12-044] | 0 | 0 |  | 0 | 0 |  | 0 |
| CN1CCC[C@@H]1COc1nc2c(c(N3C[C@@H]4OC(=O)[C@@H]4C3)n1)CCN(c1cccc3cccc(Cl)c13)C2 [Compound 12-058] | 5.0 | 6.0 |  | 94.0 | 7.0 |  | 6.0 |
| CN1CCC[C@@H]1COc1nc2c(c(N3CCC4(CC3)CNC4=O)n1)CCN(c1cccc3cccc(Cl)c13)C2 [Compound 12-064] | 0 | 0 |  | 0 | 0 |  | 0 |
| CN1CCC[C@@H]1COc1nc2c(c(N3CCN4C(=O)C[C@H]4C3)n1)CCN(c1cccc3cccc(Cl)c13)C2 [Compound 12-074] | 0 | 0 |  | 0 | 0 |  | 0 |
| CN1CCC[C@@H]1COc1nc2c(c(N3CC[C@H]4C(=O)O[C@H]4C3)n1)CCN(c1cccc3cccc(Cl)c13)C2 [Compound 12-077] | 6.9 | 7.5 |  | 100 | 8.6 |  | 7.5 |
